How the values were obtained:
Format in all cases: in vivo
[1] = tested on: ground pearl (Margarodes spp); experiment: Field trial in kikuyu turf, control of ground pearl, Robina (Example 6); conditions: sc
[2] = tested on: ground pearl (Margarodes spp); experiment: as above; conditions: for Ground pearls/plot, Adults, Pre-spray / Ground pearls/plot, Eggs, Pre-spray: Pre-spray (baseline), 20 cores per plot; for density of ground pearl eggs and adults (in words) / turf vigor (in words): versus untreated, P<0.05
Procedure: A field trial was conducted in kikuyu turf, to evaluate fenpyroximate for control of ground pearl (Margarodes spp). The trial was located at Robina, Queensland (−28.069442, 153.401817), in an area with a known infestation of ground pearl.
All treatments were applied using a hand boom fitted with XC08 nozzles, in a spray volume of 443 L/ha.
The ground pearl density by species was assessed prior to the first application and again 21 days after the third application by sampling 20 cores per plot and recording the number of eggs and adults. Turf vigor was assessed on a 0 to 10 rating scale (0=dead; 10=best quality/color) prior to the first application and 42 days after the third application.
(§1) All data was statistically analyzed using analysis of variance and Fisher's protected least significant different test (Fishers LSD). The level of significance for all tests was P<0.05.

[3] = tested on: ground pearl (Margarodes spp); experiment: Field trial in kikuyu turf, control of ground pearl, Sydney (Example 2); conditions: for NDVI, Pre-spray: Pre-spray (baseline), kikuyu turf, Greenseeker; for Ground pearls/plot, Adults, Pre-spray / Ground pearls/plot, Eggs, Pre-spray / Ground pearls/plot, Adults, 56 DAA3 / Ground pearls/plot, Eggs, 56 DAA3 / NDVI, 56 DAA3: sc; for Ground pearls/plot, Adults, 56 DAA3 / Ground pearls/plot, Eggs, 56 DAA3: 200 g/ha; for Ground pearls/plot, Adults, 56 DAA3 / Ground pearls/plot, Eggs, 56 DAA3 / NDVI, 56 DAA3: 1344 h
Procedure: A field trial was conducted in kikuyu turf, to evaluate fenpyroximate for control of ground pearl (Margarodes spp). The trial was located at Sydney University, New South Wales (−33.888, 151.188), in an area with a known infestation of ground pearl.
All treatments were applied using a hand boom fitted with XR11004 nozzles, in a spray volume of 430 L/ha.
The ground pearl density by species was assessed by sampling 20 cores per plot and recording the number of eggs and adults, and Normalized Difference Vegetation Index (NDVI) was assessed 56 days after the third application using a Greenseeker.
as §1

[4] = versus untreated, P<0.05, with PE 6200

| Structure (SMILES) | Turf vigor (0-10), 56 DAA3 [1] | Turf vigor (0-10), Pre-spray [2] | Ground pearls/plot, Adults, Pre-spray [2] | Ground pearls/plot, Eggs, Pre-spray [2] | density of ground pearl eggs and adults (in words) [2] | turf vigor (in words) [2] | NDVI, Pre-spray [3] | Ground pearls/plot, Adults, Pre-spray [3] | Ground pearls/plot, Eggs, Pre-spray [3] | Ground pearls/plot, Adults, 56 DAA3 [3] | Ground pearls/plot, Eggs, 56 DAA3 [3] | NDVI, 56 DAA3 [3] | density of ground pearl adults (in words) [3, 4] | density of ground pearl eggs (in words) [3, 4] |
| --- | --- | --- | --- | --- | --- | --- | --- | --- | --- | --- | --- | --- | --- | --- |
| CN1COCN(Cc2cnc(Cl)s2)/C1=N\[N+](=O)[O-] [Meridian, Thiamethoxam] | 6.0 a | 5.1 | 6.0 ground pearls/plot | 3.0 ground pearls/plot | significantly reduced | significantly improved | 7.5 | 15.5 a ground pearls/plot | 7.8 a ground pearls/plot | 9.8 a ground pearls/plot | 8.5 abc ground pearls/plot | 7.5 | significantly reduced | significantly reduced |
| O=[N+]([O-])NC1=NCCN1Cc1ccc(Cl)nc1 [Kohinor 350 SC, Imidacloprid] | 5.9 a | 5.1 | 5.7 ground pearls/plot | 2.0 ground pearls/plot | significantly reduced | significantly improved | 8.25 | 10.5 a ground pearls/plot | 9.0 a ground pearls/plot | 13.8 a ground pearls/plot | 12.5 cd ground pearls/plot | 7.8 | – | did not reduce |
